In test [1] the test system is serum calcium concentration.
Method: Rats were divided into four groups of seven animals, and each group was assigned at random to a dose of standard or test solution. Low and high doses were chosen from the linear portion of the dose-response curve. For the salmon calcitonin standard, the values were 0.7 and 2.1 mcg. peptide/100 g. body weight (BW). This dose approximates 3 and 9 MU/100 g. BW. Peptides were given by subcutaneous injection (0.2 ml/100 g. BW) and blood was withdrawn 1 hour later for serum calcium determination. Sera are processed and analyzed within two hours of collection.
The conditions of test [2]: literature values; cited from earlier work.

Bridge positions count the residues as written; N and C are the ends. Ends that are not written are not given here. Peptide text beside a SMILES is read from it.

Take `CC(C)C[C@H](NC(=O)[C@H](CCCCN)NC(=O)CNC(=O)[C@H](CC(C)C)NC(=O)[C@@H](NC(=O)[C@@H]1CSSC[C@H](N)C(=O)N[C@@H](CO)C(=O)N[C@@H](CC(N)=O)C(=O)N[C@@H](CC(C)C)C(=O)N[C@@H](CO)C(=O)N[C@@H]([C@@H](C)O)C(=O)N1)C(C)C)C(=O)N[C@@H](CO)C(=O)N[C@@H](CCC(N)=O)C(=O)N[C@@H](CCC(=O)O)C(=O)N[C@@H](CC(C)C)C(=O)N[C@@H](Cc1c[nH]cn1)C(=O)N[C@@H](CCCCN)C(=O)N[C@@H](CC(C)C)C(=O)N[C@@H](CCC(N)=O)C(=O)N[C@H](C(=O)N[C@@H](Cc1ccc(O)cc1)C(=O)N1CCC[C@H]1C(N)=O)[C@@H](C)O` [calcitonin-(1-23)-peptide amide, Calcitonin-(1-23)-peptide amide] (H-CSNLSTCVLGKLSQELHKLQTYP-NH2; disulfide 1-7): the biological potency in test [1] (rat, in vivo, sc) was determined as 11.5 IU/mg. In the case of `CC(C)C[C@H](NC(=O)[C@H](CCCCN)NC(=O)CNC(=O)[C@H](CC(C)C)NC(=O)[C@@H](NC(=O)[C@@H]1CSSC[C@H](N)C(=O)N[C@@H](CO)C(=O)N[C@@H](CC(N)=O)C(=O)N[C@@H](CC(C)C)C(=O)N[C@@H](CO)C(=O)N[C@@H]([C@@H](C)O)C(=O)N1)C(C)C)C(=O)N[C@@H](CO)C(=O)N[C@@H](CCC(N)=O)C(=O)N[C@@H](CCC(=O)O)C(=O)N[C@@H](CC(C)C)C(=O)N[C@@H](Cc1c[nH]cn1)C(=O)N[C@@H](CCCCN)C(=O)N[C@@H](CC(C)C)C(=O)N[C@@H](CCC(N)=O)C(=O)N[C@H](C(=O)N[C@@H](Cc1ccc(O)cc1)C(=O)N1CCC[C@H]1C(=O)N[C@@H](CCCNC(=N)N)C(=O)N[C@H](C(=O)N[C@@H](CC(N)=O)C(=O)N[C@H](C(=O)NCC(=O)N[C@@H](CO)C(=O)NCC(=O)N[C@H](C(=O)N1CCC[C@H]1C(N)=O)[C@@H](C)O)[C@@H](C)O)[C@@H](C)O)[C@@H](C)O` [standard salmon calcitonin, Salmon calcitonin], the “potency of the standard, independently determined” value in test [1] (standard salmon calcitonin used, independently determined) is “greater than 4,000 IU/mg”. On to “(1,7-α-L-aminosuberic acid) eel calcitonin”, for which the hypocalcemic potency result in test [2] is “about 3400 Iu/mg”.

“eel calcitonin (CSNLSTCVLGKLSQELHKLQTYPRTDVGAGTP-NH2; disulfide 1-7; ends not checked; UniProt P01262 1-32, looked up) [synthetic eel calcitonin, synthetic eel calcitonin of Monikawa et al]”: the hypocalcemic potency entry in test [2] is “around 4300 Iu/mg”.

The record behind these values is patent US4605515A, “Calcitonin-(1-23)-peptide amide” (Armour Pharmaceutical Company, priority 1984, dated 1986).
